Measurements as given in patent US20060099173A1, “Topical skin care composition” (priority 2003, published 2006).
Like-named read-outs stand apart in the source and are kept apart here.

Experiments:
[1] = description of the substance; cited from earlier work
[2] = in vivo
[3] = clinical; details: human, in vivo

CC1(C)O[C@@H]2C[C@H]3[C@@H]4C[C@H](F)C5=CC(=O)C=C[C@]5(C)[C@@]4(F)[C@@H](O)C[C@]3(C)[C@]2(C(=O)CO)O1 [fluocinolone acetonide, (6,11,16)-6,9-difluoro-11,21-dihydroxy-16,17-[(1-methylethylidene)bis(oxy)]-pregna-1,-4-diene-3,20-dione]
Stability of the drug substance (light, air, moisture) [1]: stable in light
Percutaneous absorption of unchanged drug into the systemic circulation [2]: minimal
Post-dose plasma concentrations [2]: undetectably low

Oc1ccc(O)cc1 [hydroquinone, 1,4-benzenediol]
Stability of the drug substance (light, air, moisture) [1]: darken on exposure to air
Cmax [3]: 25.6 to 86.5 ng/mL
Number of subjects with quantifiable plasma concentrations ([2]; human, 8 weeks): 8
Subjects with quantifiable plasma concentrations ([2]; human, 8 weeks): 18%
Percutaneous absorption of unchanged drug into the systemic circulation [2]: minimal
Post-dose plasma concentrations [2]: undetectably low

CC1=C(/C=C/C(C)=C/C=C/C(C)=C/C(=O)O)C(C)(C)CCC1 [tretinoin, (all-E)-3,7-dimethyl-9-(2,6,6-trimethyl-l-cyclohexen-1-yl)-2,4,6,8-nonatetraenoic acid]
Stability of the drug substance (light, air, moisture) [1]: highly reactive to light and moisture
Cmax [3]: 2.01 to 5.34 ng/mL
Cmax ([2]; human): 2.0 to 4.99 ng/mL
Percutaneous absorption of unchanged drug into the systemic circulation [2]: minimal
